Data set [1] has as its system TGFβ2 mRNA expression in SSc fibroblasts. The data set can be described thus: TGFβ2 mRNA expression in primary dermal control and SSc fibroblasts, RT-qPCR. In kind it is cell-based, human. Particulars: for TGFβ2 mRNA expression in SSc fibroblasts after drug removal: 72 hours treatment, then drug removal; for TGFβ2 mRNA expression in SSc fibroblasts under treatment: SSc fibroblasts vs controls, serum-deprived, SGC-CBP30 72 hours, actinomycin D 12 hours; for TGFβ2 mRNA expression upon stimulation with cytokine/ligand: exogenous stimulation of fibroblasts. Here is the method: (§1) To test this hypothesis, it was first validated whether primary dermal SSc fibroblast lines established from dermal biopsies maintained stable gene expression differences at baseline. Six dermal fibroblasts lines from SSc patients and five dermal fibroblast lines from healthy controls were cultured in serum-deprived conditions (DMEM+1% FCS) for 48 hours, followed by mRNA isolation. RNAseq analysis indicated significant transcriptomic differences (FDR<0.05) with heightened expression of extracellular matrix genes (P<1E-9) in SSc fibroblasts (FIG. 1A). By RT-qPCR, elevated expression of pro-fibrotic genes, such as COL1A1 and SERPINH1 (FIG. 1B), were independently validated. TGFβ expression, the dominant pro-fibrotic cytokine, was also assessed. […] This indicated transcriptional upregulation of TGFβ2 in SSc fibroblasts.
Since heightened TGFβ2 signaling drives collagen expression in SSc cells, the possible mechanisms of heightened TGFβ2 ligand expression in SSc fibroblasts, was investigated. First, it was determined if SSc fibroblasts were actively transcribing TGFβ2 mRNA by treating SSc or control fibroblasts with the transcriptional inhibitor actinomycin D for 12 hours, followed by mRNA isolation and RT-qPCR.
Second, it was determined if autocrine TGFβ2 signaling drives the steady-state differences in TGFβ2 mRNA expression in SSc fibroblasts. Cells were treated with isotype control or αTGFβ2ab in the presence or absence of saturating levels of exogenous TGFβ2 ligand (10 ng/mL), followed by mRNA isolation and RT-qPCR.
Third, pharmacological acetyltransferase inhibitors were used to support the role of enhancers in TGFβ2 expression and to identify therapeutic strategies for SSc. Bromodomain inhibitor SGC-CBP30 specifically suppresses the acetyltransferase activity of P300. […] This indicated some form of epigenetic memory that re-activates the TGFβ2 enhancer in SSc fibroblasts.

The subject of data set [2] is TGFB2 enhancer (Enhancer 4514). The data set can be described thus: ChIP-qPCR occupancy (P300, BRD4, H3K27ac) at the TGFB2 enhancer. The data set is classed as cell-based, human. From the text: (§2) The negative enantiomer of JQ1 was used as a negative control. […] In FIGS. 4G and 4H, BRD4 inhibition with JQ1 normalizes TGFβ2 protein and collagen mRNA expression in SSc fibroblasts. In FIGS. 4I, 4J and 4K, JQ1 treatment normalizes chromatin accessibility, H3K27ac and BRD4 occupancy at the TGFB2 enhancer in SSc fibroblasts. […] FIG. 4M: Heatmap of unsupervised hierarchical clustering of differentially expressed genes between vehicle or JQ1-treated control or SSc fibroblasts by RNA-seq (N=2). Rows represent differentially expressed genes between vehicle-treated control and SSc fibroblasts (FDR<0.05). Differences in expression of these genes are mitigated in SSc fibroblasts upon JQ1 treatment. […] Blue and red bars represent control and SSc fibroblasts, respectively. Ncontrol=5 and NSSc=6. Lower and upper margins of each bar indicate 25th and 75th percentiles, respectively; the internal line indicates the mean and whiskers indicate the range. Black points represent individual samples. All mRNA levels were normalized to GAPDH mRNA levels, respectively. All experiments other than RNA-seq and ATAC-qPCR were repeated at least twice with similar results.
Detecting activation status of TGFβ2 enhancer: To determine the activation status of the enhancer for TGFβ2 expression, chromatin immunoprecipitation was performed, followed by quantitative PCR (CHIP-qPCR), using primers that were uniquely designed based on ATAC-seq data for primary fibroblasts and published ENCODE data. The current method of detecting the activation status of TGFβ2 enhancer was implemented on primary human fibroblast cell lines established from dermal biopsies of normal controls or Scleroderma patients. However, the current method is applicable to adherent or non-adherent cells from tissue or blood of subjects (e.g., human patients).
To determine if Enhancer 4514 was biologically functional, a three-pronged approach was taken. First, active and functional enhancers are strongly associated with H3K27ac histone modifications with heightened occupancy of P300 (histone acetyltransferase) (Cato E et al. (2013) Cell Molecular Cell Reviews. 49:825-837). Thus, chromatin immunoprecipitation was used followed by qPCR (ChIP-qPCR) to determine the level of H3K27ac and P300 at Enhancer 4514 in SSc and control fibroblasts under baseline serum-deprived conditions. […] Furthermore, moderately higher levels of phosphorylated SMAD2 occupancy was found at enhancer 4514 in SSc.

In data set [3] the test system is TGFB2 enhancer. Particulars: Chem-seq database GSE44098, GSE43743; cited from earlier work.
Data set [4] relates to TGFB2 enhancer (Enhancer 4514). Kind of data set: Chromatin accessibility at the TGFB2 enhancer (ATAC). In kind it is cell-based, human. Particulars: SSc fibroblasts under treatment.
Source text: as §2
To test this hypothesis, an RNA-seq and Assay for Transposase-Accessible Chromatin Sequencing (ATAC-seq) were performed on three primary control fibroblast lines and three primary SSc fibroblast lines^7. […]

Data set [5] deals with SSc fibroblasts. Kind of data set: RNA-seq transcriptome of vehicle or JQ1-treated control or SSc fibroblasts. In kind it is cell-based, human.
Source text: as §2, with “All experiments other than RNA-seq and ATAC-qPCR were repeated at least twice with similar results.” left out
To test this hypothesis, it was first validated whether primary dermal SSc fibroblast lines established from dermal biopsies maintained stable gene expression differences at baseline. […] TGFβ expression, the dominant pro-fibrotic cytokine, was also assessed. […]

For data set [6], the system named is collagen expression in SSc fibroblasts. The data set can be described thus: Collagen / fibrotic synthetic repertoire (FSR) expression in SSc fibroblasts, RT-qPCR. The data set is classed as cell-based, human. Here is the method: as §1
This provided evidence that autocrine TGFβ2 signaling drives high collagen expression in SSc. To test this, the activity of ALK5, a TGFβ receptor kinase required by all TGFβ isoforms, was inhibited. ALK5 inhibition normalized collagen expression in SSc fibroblasts (FIG. 1E, P<0.05).

Data set [7] concerns TGFβ2 protein. Kind of data set: TGFβ2 protein expression in SSc fibroblasts (western blot). The data set is classed as cell-based, human. How it is done: FIG. 1A is a heatmap. Primary control and SSc fibroblasts were cultured ex vivo under serum deprived conditions (DMEM+1% FCS). Unsupervised hierarchical clustering was performed on genes with significant mRNA expression differences (FDR<0.05) assessed by RNA-seq on primary control and SSc fibroblasts. Top ranked GO term result for each gene cluster is indicated on the left of the heatmap. FIG. 1B are plots showing mRNA transcript levels measured by RT-qPCR. FIG. 1C: Transcript differences were correlated with protein expression by western blot under same culture conditions. FIG. 1D: Effects of TGFβ2 ligand stimulation on collagen expression was assessed in SSc fibroblasts. FIG. 1E: Effects of autocrine TGFβ2 signaling on mRNA expression of collagen was assessed through treatment of control and SSc fibroblasts with anti-TGFβ2 neutralizing antibody, followed by RT-qPCR. FIG. 1F: Effects of autocrine TGFβ2 stimulation on mRNA expression of TGFβ2 was assessed through treatment of control and SSc fibroblasts with combinations of anti-TGFBβ2 neutralizing antibody and exogenous TGFβ2 ligand ([…]). […]
For orientation: A western blot detects proteins with antibodies after separation by electrophoresis.

In data set [8] the test system is TGFβ3 mRNA expression. The data set can be described thus: TGFβ3 mRNA expression in fibroblasts, RT-qPCR. The data set is classed as cell-based, human. Particulars: fibroblasts under treatment. Background: Quantitative PCR measures a nucleic acid by following its amplification.
The subject of data set [9] is TGFβ1 mRNA expression. The data set can be described thus: TGFβ1 mRNA expression in fibroblasts, RT-qPCR. In kind it is cell-based, human. Particulars: fibroblasts under treatment.
Data set [10] has as its system Scleroderma cells. Kind of data set: Cell toxicity of CBP/P300 inhibitor treatment.
The mark [11] stands for this setting: SSc fibroblasts under treatment.
Where [12] appears, read: SSc fibroblasts, 72 hours treatment then removal.

The values below come from patent US11771703B2, “Targeted epigenetic therapy against distal regulatory element of TGFβ2 expression” (The Johns Hopkins University, priority 2017, dated 2023).

Entries after “also recorded” stand apart in the source; their conditions may differ. Numbered stars: 1 amine (or outer) side, 2 acyl side, 3 side chain; on linkers, the order of the positions; unused ones are H or OH. Bridge positions count the residues as written; N and C are the ends. Square brackets hold non-standard residues; d marks the D form. Peptide text beside a SMILES is read from it. I, II: the chains in the order shown. Actinocin(9to1) = Cc1c2oc3c(C)ccc(C(=O)[*:1])c3nc-2c(C(=O)[*:2])c(N)c1=O; NMeV = CN[C@H](C(=O)O)C(C)C; Sar = CNCC(=O)O

With `CC(C)(C)c1ccc(S(=O)(=O)/C=C/C#N)cc1` [BAY 11-7085], in data set [1], the “TGFβ2 mRNA expression in SSc fibroblasts after drug removal” value is on record as “sustained normalization” and the “TGFβ2 mRNA expression in SSc fibroblasts under treatment” value (“TGFβ2 mRNA expression … under treatment” below) is “robustly suppressed”. Moreover, the “TGFβ2 mRNA expression in SSc fibroblasts after drug removal” value in [1] (listed as BAY 11-70585) is given as “sustained repression”. Further, the “TNFα-induced TGFB2 mRNA expression under co-treatment” value in data set [1] (co-treatment with TNFα) was “prevents TGFB2 induction”.
Consider `Cc1sc2c(c1C)C(c1ccc(Cl)cc1)=N[C@@H](CC(=O)OC(C)(C)C)c1nnc(C)n1-2` [JQ1], for which, in [2] (setting [11]), the “BRD4 occupancy at the TGFB2 enhancer” value is on record as “complete normalization; also recorded: normalizes” and the “H3K27ac at the TGFB2 enhancer” value is recorded as “complete normalization; also recorded: normalizes”. In addition, in data set [2] (setting [12]), the “BRD4 occupancy at the TGFB2 enhancer after drug removal” value is “continued normalization; also recorded: sustained normalization”, the “H3K27ac at the TGFB2 enhancer after drug removal” value is given as “continued normalization; also recorded: sustained normalization” and the “P300 occupancy at the TGFB2 enhancer after drug removal” value is on record as “continued normalization; also recorded: sustained normalization”. Also, the “binding at the TGFB2 enhancer (Chem-seq)” value in data set [3] was “specifically bound to the TGFB2 enhancer; also recorded: specific binding”. For the same molecule, the “chromatin accessibility at the TGFB2 enhancer” value in data set [4] is “complete normalization; also recorded: normalizes”. For the same molecule, the “transcriptomic differences between control and SSc fibroblasts (RNA-seq)” value in data set [5] (N=2) is recorded as “significantly mitigated transcriptomic differences”. Besides, the “clustering in principal component analysis of RNA-seq” value in data set [5] (PC1, 67% of total variance) is recorded as “cluster together with control samples in PC1; also recorded: cluster with control fibroblasts”. In data set [1], the “TGFβ2 mRNA expression in SSc fibroblasts after drug removal” value is reported as “sustained repression; also recorded: sustained suppression; also recorded: maintained even after drug removal” and the “TGFβ2 mRNA expression … under treatment” value is on record as “rapidly normalized; also recorded: decreased”. In addition, the “TGFβ2 mRNA induction by exogenous TGFβ2 ligand under co-treatment” value in data set [1] (co-stimulation with TGFβ2 ligand (10 ng/mL)) is listed as “failed to induce TGFβ2 mRNA expression”. Also, the “TGFβ2 mRNA expression in SSc fibroblasts after a single 48 hr regiment” value in data set [1] (single 48 hr regiment) was “permanently normalizes”. The “fibrotic synthetic repertoire (FSR) in SSc cells” value in data set [6] (e.g. COL1A1, SERPINH1) is listed as “normalization”. Further, in data set [6] (mRNA, RT-qPCR), the “collagen expression in SSc fibroblasts” value is “rapidly normalized; also recorded: normalizes”. In [7], the “TGFβ2 protein levels in SSc fibroblasts” value was “rapidly normalized; also recorded: normalizes”.
Regarding `COc1ccc(CCc2nc3cc(-c4c(C)noc4C)ccc3n2C[C@H](C)N2CCOCC2)cc1Cl` [SGC-CBP30], in data set [2] (SSc fibroblasts, 72 hours), the “P300 occupancy of the TGFB2 enhancer under treatment” value is given as “suppressed”. Further, in data set [2] (setting [12]), the “P300 occupancy at the TGFB2 enhancer after drug removal” value is reported as “re-establish high P300 occupancy; also recorded: rebounded to steady-state levels”. Moreover, in data set [1], the “TGFβ2 mRNA expression in SSc fibroblasts after drug removal” value was “rebounded to steady-state levels”. The figures for the “TGFβ2 mRNA expression … under treatment” value in [1] and in data set [1] (listed as SGC-CBP300) were “normalized TGFβ2 expression in SSc fibroblasts to levels comparable to that of controls; also recorded: suppressed; also recorded: decrease TGFβ2 expression in Scleroderma cells to levels comparable to that of control” and “specifically decrease”, respectively. Further, the “TGFβ2 mRNA level in SSc cells compared to control after drug removal” value in data set [1] (after 72 hours of treatment and drug removal) is listed as 3 fold. Moreover, the “TGFβ3 mRNA expression” value in data set [8] is on record as “not TGFβ1 or TGFβ3”. The “TGFβ1 mRNA expression” value in [9] was “not TGFβ1 or TGFβ3”. For the same molecule, the cell toxicity entry in [10] is “minimal cell toxicity”.
With `Cc1c2oc3c(C)ccc(C(=O)N[C@@H]4C(=O)N[C@H](C(C)C)C(=O)N5CCC[C@H]5C(=O)N(C)CC(=O)N(C)[C@@H](C(C)C)C(=O)O[C@@H]4C)c3nc-2c(C(=O)N[C@@H]2C(=O)N[C@H](C(C)C)C(=O)N3CCC[C@H]3C(=O)N(C)CC(=O)N(C)[C@@H](C(C)C)C(=O)O[C@@H]2C)c(N)c1=O` [actinomycin D] (I: T[dV]P[Sar][NMeV] / II: T[dV]P[Sar][NMeV]; ester I:1-I:C, II:1-II:C; linker I:N-II:N via Actinocin(9to1)), in data set [1], the “TGFβ2 mRNA expression … under treatment” value is listed as “completely normalized”. In addition, the “TGFβ3 mRNA expression” value in data set [8] is listed as “did not significantly alter”. For the same molecule, the “TGFβ1 mRNA expression” value in [9] is “did not significantly alter”.
Regarding TNFα, the “TGFβ2 mRNA expression upon stimulation with cytokine/ligand” value in [1] is reported as “increased TGFβ2 expression; also recorded: induces TGFB2 mRNA expression”.

B1: TGFβ2 ligand: exogenous TGFβ2 ligand (10 ng/mL) (protein, UniProt P61812 303-414, looked up)
Transforming growth factor …: ALDAAYCFRNVQDNCCLRPLYIDFKRDLGWKWIHEPKGYNANFCAGACPYLWSSDTQHSRVLSLYNTINPEASASPCCVSQDLEPLTILYYIGKTPKIEQLSNMIVKSCKCS
Take B1: in data set [1], the “TGFβ2 mRNA expression upon stimulation with cytokine/ligand” value is given as “pronounced further increase in TGFβ2 mRNA”.
